Data: US8084500B2, “Method of using catalpic acid to treat dyslipidemia” (Nutrition Therapeutics, Inc., priority 2005, dated 2011)
Where two headings read alike, the source gives them in different places. Marks after values point to notes of the source that are not given here.

Legend:
[1] = system: C57BL6 mice; conditions: for White adipose tissue, g (abdominal) / Brown adipose tissue, g (interscapular) / Glucose (mg/dL), plasma fasting / Insulin (ng/mL), plasma fasting: C57BL6 mice, day 78; for White adipose tissue, g (abdominal): least squares mean
Description: In Western countries the Metabolic Syndrome or Syndrome X (i.e., diabetes, obesity, cardiovascular disease, hypertension and hyperlipidemia) is on a steady rise. […] A total of forty-seven C57BL6 mice were used in experiment 1. Twenty-five mice were fed a control diet and […] mice were fed a diet supplemented with catalpic acid (0.6 g catalpic acid/100 g food). For the first 32 days of the experiment all diets contained 7% fat, 0.02% total cholesterol, and they obtained 14.5% of calories from fat by replacing catalpic acid with linoleic acid (wt/wt basis) in the control diet.
These diets are defined as regular diets and were formulated to be isocaloric between treatment groups. On day 32 of the experiment, twenty mice within each group were fed high fat diets containing 19.6% fat, 0.2% total cholesterol that obtained 40.1% of calories from fat by replacing catalpic acid with lard (wt/wt basis) in the control high fat diet.
The high fat diets were also formulated to be isocaloric between treatment groups. The remaining mice within each group (n=5) were fed the regular diets. On day 78 of the experiment, mice were killed, and blood was collected and immediately analyzed for fasting glucose concentrations by using the Accu-Check Instant Plus System (Roche Diagnostics Corporation, Indianapolis, Ind.) or stored for subsequent analysis of insulin and lipid concentrations in plasma. Abdominal white adipose tissue and interscapular brown adipose tissue were collected, weighed and stored at −80° C. for RNA analyses. Liver, lungs, kidneys, pancreas and heart were examined for macroscopic abnormalities (gross lesions), fixed in phosphate-buffered formalin (10%) and processed for histological evaluation. All specimens were generally labeled with the following information: 1) mouse number; 2) date collected; 3) experiment number; 4) type of solvent; and 5) tissue type.
Serum insulin concentrations were determined by using commercially available enzyme-linked immunosorbent assay kits (Linco Research, St. Charles, Mo.).

[2] = system: stearoyl-coenzyme A desaturase (SCD1); conditions: n = 10
Procedure: (§1) On day 28 or 78 of Experiments 1 and 2, visceral white adipose tissue (WAT) or pancreas samples were collected, stored in RNA later and frozen at −80° C. The dissection of intra-abdominal WAT was performed under magnification. RNA was isolated from WAT and pancreas specimens utilizing RNA isolation columns (Qiagen, Valencia, Calif.) per the manufacturer's instructions. RNA from the WAT was isolated using the Lipid Minikit (Qiagen). RNA was quantified using a μQuant microplate reader (Bio-TEK® Instruments, Inc., Winooski, Vt.). Briefly, total RNA (1 μg) from each sample was used to generate complementary DNA (cDNA) template using the iScript cDNA Synthesis Kit (Bio-Rad, Hercules, Calif.). The total reaction volume was 20 μl. The reaction was incubated as follows in a Tetrad Thermocycler (MJResearch, Waltham, Mass.): 5 minutes at 25° C., 30 minutes at 42° C., 5 minutes at 85° C., hold at 4° C. cDNA products were diluted 1:10 in diethylpyrocarbonate-treated water. Controls were also performed with no RNA template (no template) and omitting the reverse transcriptase enzyme (no RT).
(§2) The PCR primer pairs were designed based on previously published sequences (GenBank) using the Oligo 6 primer design software (Molecular Biology Insights, Cascade, Colo.). The PCR primer pair sequences, annealing temperatures, accession numbers and PCR product lengths are outlined in Table 5. […] Each gene amplicon was purified by using the MiniElute PCR Purification kit (Qiagen). The purified amplicon for each gene was quantified on an agarose gel using a DNA mass ladder. These purified amplicons were further used to optimize the real-time PCR conditions and to generate the standard curves in the real-time PCR assay. Primer concentrations and annealing temperatures were optimized for the iCycler iQ System (Bio-Rad) for each set of primers using the system's gradient protocol.
(§3) Messenger RNA (mRNA) expression of peroxisome proliferator-activated receptor (PPAR) gamma, PPAR alpha, and PPAR delta was determined in adipose tissue. […] Therefore, we also examined the expression of four PPAR alpha-responsive genes in WAT, including acyl-coenzyme A dehydrogenase (ACDH), stearoyl-coenzyme A desaturase (SCD1), enoyl-coenzyme A hydratase (ECH) and carnitine palmitoyl transferase-1 (Cpt-1).
(§4) Transcript expression was examined by real-time, quantitative PCR by using an iCycler iQ System and the iQ SYBR Green Supermix (Bio-Rad). Real-time PCR was used to measure the starting amount of nucleic acid by assaying each unknown starting quantity of cDNA on a 96-well plate. For each gene, the results were calculated as starting quantity of cDNA (picograms) per microgram of RNA.

[3] = system: enoyl-coenzyme A hydratase (ECH); conditions: n = 10
Procedure: as §1, §2, §3, §4

[4] = system: PPAR alpha; conditions: for PPAR alpha mRNA expression in white adipose tissue: n = 10
Procedure: as §1, §2, §3, §4

[5] = system: PPAR gamma; conditions: C57BL/6J wild-type mice, 78 days, n = 10
Procedure: as §1, §2, §3, §4

[6] = system: db/db mice
Procedure: Mice were purchased from Harlan (Indianapolis, Ind.). Following an acclimation period of 5 days on regular rodent chow they were fed purified, high fat diets that represented a modification of the AIN-93G rodent diet in which the nutritional requirements, including those for polyunsaturated fatty acids (PUFA), were met or exceeded.
Stock fatty acid solutions, e.g., soybean oil or catalpic acid were kept at −20° C. and nitrogen-purged every time that the bottles were opened. All the experimental diets contained the same amount of energy (isocaloric) and protein (isonitrogenous). To maintain the diets isocalorically, catalpic acid replaced soybean oil in the catalpic acid diet. We utilized male, db/db [BKS.Cg-+Lepr^db/+Lepr^db/OlaHsd (type 2 Diabetic)] mice (n=20) weighing 19.86 g on day 1 of the study. The db/db mice lack the long isoform of leptin receptor and represent a well-established model of type 2 Diabetes and are often utilized to determine the pre-clinical efficacy of antidiabetic drugs. Half of the mice were fed a control and the other half a catalpic acid-supplemented diet (1 g catalpa oil/100 g diet).
(§5) Mice were weighed on a daily basis and examined for clinical signs of disease by blinded observers. Water and feed intake were assessed on a daily basis. Fasting (12 h) glucose and insulin concentrations were determined on days 0, 7, 15, 21 and 28, of the study. Briefly, blood was collected via the caudal vein and placed onto capillary blood collection tubes. Insulin concentrations were determined by using a commercially available insulin enzyme-linked immunosorbent assay (ELISA) (Linco Research, St Charles, Mo.) per manufacturer's instructions. Mice were administered a glucose tolerance test and euthanized by CO2 narcosis on day 28 of the study. For the glucose tolerance test, animals were fasted overnight (12 hours), injected intraperitoneally with D-glucose (2 g/kg body weight) and blood samples were collected via the caudal vein prior to the injection (time 0) and at 15, 30, 60, 90, 120 and 180 minutes following the injection to determine the effect of CAT on the kinetics of glucose normalization.

[7] = system: db/db mice; conditions: 0-180 min after glucose injection, all time points, FIG. 2B
Procedure: as §5

[8] = system: PPAR delta
Procedure: On day 28 or 78 of Experiments 1 and 2, visceral white adipose tissue (WAT) or pancreas samples were collected, stored in RNA later and frozen at −80° C. The dissection of intra-abdominal WAT was performed under magnification. RNA was isolated from WAT and pancreas specimens utilizing RNA isolation columns (Qiagen, Valencia, Calif.) per the manufacturer's instructions. RNA from the WAT was isolated using the Lipid Minikit (Qiagen). RNA was quantified using a μQuant microplate reader (Bio-TEK® Instruments, Inc., Winooski, Vt.). Briefly, total RNA (1 μg) from each sample was used to generate complementary DNA (cDNA) template using the iScript cDNA Synthesis Kit (Bio-Rad, Hercules, Calif.). The total reaction volume was 20 μl. […]
The PCR primer pairs were designed based on previously published sequences (GenBank) using the Oligo 6 primer design software (Molecular Biology Insights, Cascade, Colo.). […] The purified amplicon for each gene was quantified on an agarose gel using a DNA mass ladder. […]
Messenger RNA (mRNA) expression of peroxisome proliferator-activated receptor (PPAR) gamma, PPAR alpha, and PPAR delta was determined in adipose tissue. Based on the patterns of expression of the nuclear receptors in each tissue, the expression of a relevant panel of responsive genes was evaluated by quantitative real-time PCR. […]

[9] = system: C57BL6 mice
Procedure: A glucose tolerance test was conducted on day 78 of the experiment. Animals were fasted overnight (14 hours). Mice were injected intraperitoneally with D-glucose (1 g/kg body weight) and blood samples were collected via the tail vein prior to the injection (time 0) and at 15, 30 and 60 minutes following the injection.

[10] = system: obese mice fed high-fat diets; conditions: CAT-supplemented high-fat diets
Procedure: Experiment 3 was conducted as described for Experiments 1 and 2 as indicated below except that determination of plasma lipid concentrations and quantitative real-time PCR were performed.
Serum HDL cholesterol concentrations were determined by using a commercial precipitation assay (Wako Diagnostics, Richmond, Va.) per the manufacturer's instructions.

[11] = high fat diets, CAT-supplemented
[12] = regular diets, CAT-supplemented
[13] = C57BL/6J wild-type mice, 78 days

SMILES: CCCC\C=C/C=C/C=C/CCCCCCCC(=O)O [CAT, catalpic acid]
- White adipose tissue, g (abdominal) ([1]; high fat diets from day 32, CAT-supplemented): 0.607^b g
- Brown adipose tissue, g (interscapular) [1, 11]: 0.105 g
- Glucose (mg/dL), plasma fasting [1, 11]: 205.43^b mg/dL
- Insulin (ng/mL), plasma fasting [1, 11]: 0.730^b ng/mL
- Brown adipose tissue, g (interscapular) [1, 12]: 0.169 g
- Glucose (mg/dL), plasma fasting [1, 12]: 146.20^b mg/dL
- Insulin (ng/mL), plasma fasting [1, 12]: 0.960^b ng/mL
- White adipose tissue, g (abdominal) [1, 12]: 0.751^b g
- fatty liver or enlarged viscera ([1]; mice fed catalpic acid-supplemented diets, Experiment 1): not observed
- Stearoyl CoA Desaturase mRNA expression in white adipose tissue [2, 13]: 0.130^a picograms of starting cDNA per microgram of white adipose tissue total RNA
- Stearoyl CoA Desaturase mRNA expression in white adipose tissue ([2]; db/db mice, 28 days): 0.095^a picograms of starting cDNA per microgram of white adipose tissue total RNA
- Enoyl CoA Hydratase mRNA expression in white adipose tissue [3, 13]: 0.0039^a picograms of starting cDNA per microgram of white adipose tissue total RNA
- Enoyl CoA Hydratase mRNA expression in white adipose tissue ([3]; db/db mice, 28 days): 0.0024 picograms of starting cDNA per microgram of white adipose tissue total RNA
- PPAR alpha mRNA expression in white adipose tissue [4, 13]: 0.005^a picograms of starting cDNA per microgram of white adipose tissue total RNA
- PPAR alpha mRNA expression in white adipose tissue ([4]; db/db mice, 28 days): 0.0052^a picograms of starting cDNA per microgram of white adipose tissue total RNA
- pancreatic concentrations of PPAR alpha and its responsive genes ([4]; pancreas of CAT-fed mice): unchanged
- PPAR gamma mRNA expression in white adipose tissue [5]: 0.074 picograms of starting cDNA per microgram of white adipose tissue total RNA
- difference in WAT weight between groups attributable to catalpic acid ([6]; day 28): over 10%
- abdominal WAT weight versus control ([6]; day 28, FIG. 5): significantly lower
- body weight versus control ([6]; high fat diet, FIG. 4A): No differences
- feed intake versus control ([6]; high fat diet, FIG. 4B): No differences
- glucose concentrations ([6]; high fat diet, day 28 (control 425 mg/dl)): 290 mg/dL
- fasting plasma insulin concentrations ([6]; high fat diet, days 0-28, remained at basal levels, FIG. 3): lower than 4 ng/ml
- fasting plasma glucose versus high fat control diet ([6]; high fat diet, days 14, 21 and 28, P<0.05, FIG. 2A): lower
- glucose normalizing ability versus control [7]: greater
- PPAR delta mRNA expression in white adipose tissue ([8]; C57BL/6J wild-type mice, 78 days, n = 10): 0.007 picograms of starting cDNA per microgram of white adipose tissue total RNA
- PPAR delta expression in the pancreas ([8]; pancreas of CAT-fed mice, P<0.04): 0.069
- glucose tolerance versus control ([9]; mice fed high fat diets, FIG. 1B): normalizes impaired glucose tolerance
- glucose tolerance versus control ([9]; mice fed regular diets, FIG. 1A): not different
- plasma triglyceride concentrations versus control high-fat diet ([10]; mice, FIG. 6B): lower
- HDL cholesterol concentrations versus control high-fat diet ([10]; obese mice, FIG. 6A): greater
